Where two headings read alike, the source gives them in different places.
Columns and labels:
Experiment in all cases: MIC, agar dilution (MHA), compound alone
Assay type in all cases: cell-based
[1] = test system: E. coli 7 MP; conditions: E. coli 7 MP, compound alone, MHA, 35° C., 18 hours
Experimental: (§1) The biological activity of representative compounds according to the invention against various bacterial strains was investigated. The Minimum Inhibitory Concentration (MIC) determination for the combinations was carried out in Muller Hinton Agar (MHA) (BD, USA) according to Clinical and Laboratory Standards Institute (CLSI) recommendations, (Clinical and Laboratory Standards Institute (CLSI), Performance Standards for Antimicrobial Susceptibility Testing, 20th Informational Supplement, M 100-S20, Volume 30, No. 1, 2010). In short, the test strains were adjusted to deliver about 10^4 CFU per spot with a multipoint inoculator (Applied Quality Services, UK). The plates were poured with MHA containing doubling concentration range of representative compounds according to present invention. The plates were inoculated and were incubated at 35° C. for 18 hours. […] The Table 5 depicts the antibacterial activity profile of compounds according to present invention against various multidrug resistant bacterial strains.

[2] = test system: E. coli M 50; conditions: E. coli M 50, compound alone, MHA, 35° C., 18 hours
Experimental: as §1

[3] = test system: E. coli NCTC 13352; conditions: E. coli NCTC 13352, compound alone, MHA, 35° C., 18 hours
Experimental: as §1

[4] = test system: E. coli NCTC 13353; conditions: E. coli NCTC 13353, compound alone, MHA, 35° C., 18 hours
Experimental: as §1

[5] = test system: K. pneumoniae ATCC 700603; conditions: K. pneumoniae ATCC 700603, compound alone, MHA, 35° C., 18 hours
Experimental: as §1

[6] = test system: K. pneumoniae H521; conditions: K. pneumoniae H521, compound alone, MHA, 35° C., 18 hours
Experimental: as §1

[7] = test system: K. pneumoniae H525; conditions: K. pneumoniae H525, compound alone, MHA, 35° C., 18 hours
Experimental: as §1

[8] = Escherichia coli, read-out: MIC
[9] = Escherichia coli, M50, read-out: MIC
[10] = Escherichia coli, NCTC13352, read-out: MIC
[11] = Escherichia coli, NCTC13353, read-out: MIC
[12] = Klebsiella pneumoniae, ATCC700603, read-out: MIC
[13] = Klebsiella pneumoniae, read-out: MIC

Row | SMILES | MIC [1, 8] | MIC [2, 9] | MIC [3, 10] | MIC [4, 11] | MIC [5, 12] | MIC [6, 13] | MIC [7, 13] | MIC [1] | MIC [2] | MIC [3] | MIC [4] | MIC [5] | MIC [6] | MIC [7]
1 | CO/N=C(\C(=O)N[C@@H]1C(=O)N2C(C(=O)[O-])=C(C[N+]3(C)CCCC3)CS[C@H]12)c1csc(N)n1 [Cefepime, reference compound] | 16 µg/mL | > 32 µg/mL | 4 µg/mL | 32 µg/mL | 0.5 µg/mL | 32 µg/mL | 32 µg/mL |  |  |  |  |  |  | 
2 | O=C(Cn1ccnc1)NNC(=O)[C@@H]1CC[C@@H]2CN1C(=O)N2OS(=O)(=O)O.[Na] [Example 2, Sodium salt of (2S,5R)-N′-(1H-imidazol-1-ylacetyl)-7-oxo-6-(sulfooxy)-1,6-diazabicyclo[3.2.1]octane-2-carbohydrazide] |  |  |  |  |  |  |  | 1 µg/mL | 0.5 µg/mL | 0.5 µg/mL | 0.25 µg/mL | >32 µg/mL | 1 µg/mL | 1 µg/mL
3 | O=C(Cn1ncnn1)NNC(=O)[C@@H]1CC[C@@H]2CN1C(=O)N2OS(=O)(=O)[O-].[Na+] [Example 4] | 1 µg/mL | 0.5 µg/mL | 0.5 µg/mL | 0.5 µg/mL | > 32 µg/mL | 1 µg/mL | 1 µg/mL |  |  |  |  |  |  | 
4 | CCOC(=O)c1nnnn1CC(=O)NNC(=O)[C@@H]1CC[C@@H]2CN1C(=O)N2OS(=O)(=O)[O-].[Na+] [Example 5] | 2 µg/mL | 1 µg/mL | 0.5 µg/mL | 0.5 µg/mL | > 32 µg/mL | 2 µg/mL | 2 µg/mL |  |  |  |  |  |  | 
5 | O=C(Cn1nccn1)NNC(=O)[C@@H]1CC[C@@H]2CN1C(=O)N2OS(=O)(=O)[O-].[Na+] [Example 6] | 2 µg/mL | 1 µg/mL | 1 µg/mL | 1 µg/mL | > 32 µg/mL | 2 µg/mL | 2 µg/mL |  |  |  |  |  |  | 
6 | O=C(Cn1ccnn1)NNC(=O)[C@@H]1CC[C@@H]2CN1C(=O)N2OS(=O)(=O)[O-].[Na+] [Example 7] | 1 µg/mL | 0.5 µg/mL | 0.5 µg/mL | 0.5 µg/mL | > 32 µg/mL | 1 µg/mL | 1 µg/mL |  |  |  |  |  |  | 
7 | O=C(Cn1cncn1)NNC(=O)[C@@H]1CC[C@@H]2CN1C(=O)N2OS(=O)(=O)[O-].[Na+] [Example 8] | 2 µg/mL | 0.5 µg/mL | 0.5 µg/mL | 0.5 µg/mL | > 32 µg/mL | 1 µg/mL | 1 µg/mL |  |  |  |  |  |  | 
8 | Cc1nnnn1CC(=O)NNC(=O)[C@@H]1CC[C@@H]2CN1C(=O)N2OS(=O)(=O)[O-].[Na+] [Example 9] | 1 µg/mL | 0.25 µg/mL | 0.5 µg/mL | 0.25 µg/mL | > 32 µg/mL | 4 µg/mL | 1 µg/mL |  |  |  |  |  |  | 
9 | O=C(Cn1cccn1)NNC(=O)[C@@H]1CC[C@@H]2CN1C(=O)N2OS(=O)(=O)[O-].[Na+] [Example 11] | 4 µg/mL | 1 µg/mL | 1 µg/mL | 1 µg/mL | > 32 µg/mL | 32 µg/mL | > 32 µg/mL |  |  |  |  |  |  | 
10 | CCOC(=O)Cc1nnnn1CC(=O)NNC(=O)[C@@H]1CC[C@@H]2CN1C(=O)N2OS(=O)(=O)[O-].[Na+] [Example 12] | 2 µg/mL | 2 µg/mL | 0.5 µg/mL | 1 µg/mL | > 32 µg/mL | 4 µg/mL | 4 µg/mL |  |  |  |  |  |  | 
11 | CCOC(=O)Cc1nnn(CC(=O)NNC(=O)[C@@H]2CC[C@@H]3CN2C(=O)N3OS(=O)(=O)[O-])n1.[Na+] [Example 13] | 2 µg/mL | 2 µg/mL | 1 µg/mL | 1 µg/mL | > 32 µg/mL | 32 µg/mL | 32 µg/mL |  |  |  |  |  |  | 
12 | NC(=O)Cc1nnn(CC(=O)NNC(=O)[C@@H]2CC[C@@H]3CN2C(=O)N3OS(=O)(=O)[O-])n1.[Na+] [Example 14] | 1 µg/mL | 0.5 µg/mL | 1 µg/mL | 1 µg/mL | > 32 µg/mL | 4 µg/mL | 4 µg/mL |  |  |  |  |  |  | 
13 | NC(=O)Cc1nnnn1CC(=O)NNC(=O)[C@@H]1CC[C@@H]2CN1C(=O)N2OS(=O)(=O)[O-].[Na+] [Example 15] | 1 µg/mL | 0.5 µg/mL | 0.5 µg/mL | 0.5 µg/mL | > 32 µg/mL | 2 µg/mL | 2 µg/mL |  |  |  |  |  |  | 
14 | NC(=O)c1nnn(CC(=O)NNC(=O)[C@@H]2CC[C@@H]3CN2C(=O)N3OS(=O)(=O)[O-])n1.[Na+] [Example 16] | 2 µg/mL | 1 µg/mL | 1 µg/mL | 1 µg/mL | > 32 µg/mL | 2 µg/mL | 2 µg/mL |  |  |  |  |  |  | 
15 | NC(=O)c1nnnn1CC(=O)NNC(=O)[C@@H]1CC[C@@H]2CN1C(=O)N2OS(=O)(=O)[O-].[Na+] [Example 17] | 0.5 µg/mL | 0.25 µg/mL | 0.25 µg/mL | 0.25 µg/mL | > 32 µg/mL | 1 µg/mL | 1 µg/mL |  |  |  |  |  |  | 
16 | O=C(Cn1cccc1)NNC(=O)[C@@H]1CC[C@@H]2CN1C(=O)N2OS(=O)(=O)[O-].[Na+] [Example 18] | 1 µg/mL | 0.5 µg/mL | 0.5 µg/mL | 0.25 µg/mL | > 32 µg/mL | 1 µg/mL | 1 µg/mL |  |  |  |  |  |  | 
17 | C[C@@H](C(=O)NNC(=O)[C@@H]1CC[C@@H]2CN1C(=O)N2OS(=O)(=O)[O-])n1ccnc1.[Na+] [Example 20] | 1 µg/mL | 0.5 µg/mL | 0.5 µg/mL | 0.5 µg/mL | > 32 µg/mL | 2 µg/mL | 2 µg/mL |  |  |  |  |  |  | 
18 | CCOC(=O)c1nccn1CC(=O)NNC(=O)[C@@H]1CC[C@@H]2CN1C(=O)N2OS(=O)(=O)[O-].[Na+] [Example 21] | 4 µg/mL | 2 µg/mL | 2 µg/mL | 2 µg/mL | > 32 µg/mL | 8 µg/mL | 8 µg/mL |  |  |  |  |  |  | 
19 | Nc1nnnn1CC(=O)NNC(=O)[C@@H]1CC[C@@H]2CN1C(=O)N2OS(=O)(=O)O [Example 24, (2S,5R)-N′-[(5-amino-1H-tetrazol-1-yl)acetyl]-7-oxo-6-(sulfooxy)-1,6-diazabicyclo[3.2.1]octane-2-carbohydrazide] | 2 µg/mL | 0.5 µg/mL | 1 µg/mL | 0.5 µg/mL | > 32 µg/mL | 2 µg/mL | 2 µg/mL |  |  |  |  |  |  | 
20 | NCc1nnnn1CC(=O)NNC(=O)[C@@H]1CC[C@@H]2CN1C(=O)N2OS(=O)(=O)O [Example 25] | 2 µg/mL | 0.5 µg/mL | 1 µg/mL | 1 µg/mL | > 32 µg/mL | 1 µg/mL | 1 µg/mL |  |  |  |  |  |  | 

— patent publication US20180282331A1, “7-Oxo -6-(sulfooxy)- 1,6-diazabicyclo [3.2.1] octane containing compounds and their use in treatment of bacterial infections (changed by PCT to: 7-OXO -6-(SULFOOXY)- 1,6-DIAZABICYCLO [3.2.1] OCTANE CONTAINING COMPOUNDS AND THEIR USE IN TREATMENT OF BACTERIAL INFECTIONS” (WOCKHARDT LIMITED, priority 2015, published 2018)
